This is an account of results in PubChem BioAssay AID248 (DTP/NCI, 2004).

For the test, the system named is L1210 leukemia ip in BDF1 mice, survival T/C. The experiment in a line: NCI In Vivo Anticancer Drug Screen. Data for tumor model L1210 Leukemia (intraperitoneal) in B6D2F1 (BDF1) mice. To be noted: endpoint: mean survival time, higher = longer survival. Put shortly: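 Survival endpoint. Drug-treated group vs vehicle group, expressed as T divided by C. Tumor passaged by transplantation.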

[1] abbreviates: dose: 100.0 mg/kg/injection, schedule: Q01DX009 (ip), vehicle: Klucel (hydroxypropylcellulose) (HPC).
Where [2] appears, read: dose: 200.0 mg/kg/injection, schedule: Q01DX009 (ip), vehicle: Klucel (hydroxypropylcellulose) (HPC).
The mark [3] stands for this setting: dose: 400.0 mg/kg/injection, schedule: Q01DX009 (ip), vehicle: Klucel (hydroxypropylcellulose) (HPC).
The mark [4] stands for this setting: dose: 100.0 mg/kg/injection, schedule: Q04DX002 (ip), vehicle: Klucel (hydroxypropylcellulose) (HPC).
[5] abbreviates: dose: 200.0 mg/kg/injection, schedule: Q04DX002 (ip), vehicle: Klucel (hydroxypropylcellulose) (HPC).
Where [6] appears, read: dose: 100.0 mg/kg/injection, schedule: Q01DX001 (ip), vehicle: saline.
The mark [7] stands for this setting: dose: 200.0 mg/kg/injection, schedule: Q01DX001 (ip), vehicle: saline.
Where [8] appears, read: dose: 400.0 mg/kg/injection, schedule: Q01DX001 (ip), vehicle: saline.
Where [9] appears, read: dose: 100.0 mg/kg/injection, schedule: Q01DX009 (ip), vehicle: saline with Tween-80.
Where [10] appears, read: dose: 100.0 mg/kg/injection, schedule: Q04DX003 (ip), vehicle: saline with Tween-80.
The mark [11] stands for this setting: dose: 200.0 mg/kg/injection, schedule: Q01DX009 (ip), vehicle: saline with Tween-80.
The mark [12] stands for this setting: dose: 200.0 mg/kg/injection, schedule: Q04DX003 (ip), vehicle: saline with Tween-80.
Setting [13] is: dose: 400.0 mg/kg/injection, schedule: Q01DX009 (ip), vehicle: saline with Tween-80.
Where [14] appears, read: dose: 400.0 mg/kg/injection, schedule: Q04DX003 (ip), vehicle: saline with Tween-80.

The structures appear in SMILES notation. “And” between values parts separate entries of the source, which are not always exact repeats. Equal values may be shown once. Toxic doses and inconclusive results are not listed.

Regarding `Cc1ccc(Cl)cc1NC(=O)C(c1ccccc1)c1ccccc1`, the T/C reads like this: under setting [1], 95 % of control; (dose: 100.0 mg/kg/injection, schedule: Q04DX003 (ip), vehicle: Klucel (hydroxypropylcellulose) (HPC)) 90 % of control; under setting [2], 94 % of control; (dose: 200.0 mg/kg/injection, schedule: Q04DX003 (ip), vehicle: Klucel (hydroxypropylcellulose) (HPC)) 96 % of control; under setting [3], 95 % of control; (dose: 400.0 mg/kg/injection, schedule: Q04DX003 (ip), vehicle: Klucel (hydroxypropylcellulose) (HPC)) 88 % of control.
Regarding `C=CCC(C)(C)/C=N/N`, the T/C (dose: 37.5 mg/kg/injection, schedule: Q04DX003 (ip), vehicle: saline) is 101 % of control; the T/C (dose: 75.0 mg/kg/injection, schedule: Q04DX003 (ip), vehicle: saline) was 102 % of control; the T/C (dose: 150.0 mg/kg/injection, schedule: Q04DX003 (ip), vehicle: saline) is 98 % of control.
With `Cc1ccc(NC(=O)N(CCCl)N=O)cc1NC(=O)c1ccccc1`, the T/C by setting is: (dose: 0.22 mg/kg/injection, schedule: Q01DX009 (ip), vehicle: carboxymethylcellulose (CMC)) 103 % of control; (dose: 0.45 mg/kg/injection, schedule: Q01DX009 (ip), vehicle: carboxymethylcellulose (CMC)) 103 % of control; (dose: 1.8 mg/kg/injection, schedule: Q01DX009 (ip), vehicle: carboxymethylcellulose (CMC)) 180 % of control; (dose: 2.6 mg/kg/injection, schedule: Q01DX009 (ip), vehicle: carboxymethylcellulose (CMC)) 175 % of control; (dose: 3.0 mg/kg/injection, schedule: Q01DX009 (ip), vehicle: carboxymethylcellulose (CMC)) 164 % of control; (dose: 4.0 mg/kg/injection, schedule: Q01DX009 (ip), vehicle: carboxymethylcellulose (CMC)) 151 % of control. Further, the T/C is, setting by setting: (dose: 6.6 mg/kg/injection, schedule: Q01DX009 (ip), vehicle: carboxymethylcellulose (CMC)) 179 % of control; (dose: 10.0 mg/kg/injection, schedule: Q01DX009 (ip), vehicle: carboxymethylcellulose (CMC)) 194 % of control; (dose: 15.0 mg/kg/injection, schedule: Q01DX009 (ip), vehicle: carboxymethylcellulose (CMC)) 183 % of control; (dose: 23.0 mg/kg/injection, schedule: Q01DX009 (ip), vehicle: carboxymethylcellulose (CMC)) 243 % of control; (dose: 34.0 mg/kg/injection, schedule: Q01DX009 (ip), vehicle: carboxymethylcellulose (CMC)) 186 % of control; (dose: 52.0 mg/kg/injection, schedule: Q01DX009 (ip), vehicle: carboxymethylcellulose (CMC)) 178 % of control. Also, the T/C reads like this: (dose: 78.0 mg/kg/injection, schedule: Q01DX001 (ip), vehicle: Klucel (hydroxypropylcellulose) (HPC)) 155 % of control; (dose: 78.0 mg/kg/injection, schedule: Q01DX009 (ip), vehicle: carboxymethylcellulose (CMC)) 205 % of control; (dose: 118.0 mg/kg/injection, schedule: Q01DX001 (ip), vehicle: Klucel (hydroxypropylcellulose) (HPC)) 159 % of control; (dose: 177.0 mg/kg/injection, schedule: Q01DX001 (ip), vehicle: Klucel (hydroxypropylcellulose) (HPC)) 213 % of control; (dose: 266.0 mg/kg/injection, schedule: Q01DX001 (ip), vehicle: carboxymethylcellulose (CMC)) 154 % of control; (dose: 266.0 mg/kg/injection, schedule: Q01DX009 (ip), vehicle: carboxymethylcellulose (CMC)) 105 % of control. Besides, the T/C runs as follows: (dose: 400.0 mg/kg/injection, schedule: Q01DX001 (ip), vehicle: carboxymethylcellulose (CMC)) 150 % of control and 168 % of control; (dose: 400.0 mg/kg/injection, schedule: Q01DX009 (ip), vehicle: carboxymethylcellulose (CMC)) 98 % of control; (dose: 600.0 mg/kg/injection, schedule: Q01DX001 (ip), vehicle: carboxymethylcellulose (CMC)) 165 % of control.
For `CC(C)=CCC(CCN1CCCCC1)(C(N)=O)c1cccc2ccccc12` (stereo not drawn), the T/C is, setting by setting: (dose: 1.5 mg/kg/injection, schedule: Q01DX009 (ip), vehicle: Klucel (hydroxypropylcellulose) (HPC)) 104 % of control; (dose: 3.12 mg/kg/injection, schedule: Q01DX009 (ip), vehicle: Klucel (hydroxypropylcellulose) (HPC)) 104 % of control; (dose: 6.25 mg/kg/injection, schedule: Q01DX009 (ip), vehicle: Klucel (hydroxypropylcellulose) (HPC)) 95 % of control; (dose: 6.25 mg/kg/injection, schedule: Q04DX002 (ip), vehicle: Klucel (hydroxypropylcellulose) (HPC)) 97 % of control; (dose: 12.5 mg/kg/injection, schedule: Q04DX002 (ip), vehicle: Klucel (hydroxypropylcellulose) (HPC)) 97 % of control; (dose: 25.0 mg/kg/injection, schedule: Q04DX002 (ip), vehicle: Klucel (hydroxypropylcellulose) (HPC)) 103 % of control.
As for `CC(O)(c1ccncc1)c1cc2ccccc2n1S(=O)(=O)c1ccccc1` (stereo not drawn), the T/C under setting [4] is 95 % of control and the T/C under setting [5] was 87 % of control.
Consider `c1ccc(CCCCc2ccc(CCCCc3ccccc3)cc2)cc1`, for which the T/C was 101 % of control under setting [6], 93 % of control under setting [7] and 93 % of control under setting [8].
Consider `CCNc1nnnn1CC`, for which the T/C (dose: 100.0 mg/kg/injection, schedule: Q04DX003 (ip), vehicle: saline) was 101 % of control; the T/C (dose: 200.0 mg/kg/injection, schedule: Q04DX003 (ip), vehicle: saline) is 98 % of control; the T/C (dose: 400.0 mg/kg/injection, schedule: Q04DX003 (ip), vehicle: saline) was 101 % of control.
`O=C(Nc1ccc(CCO)cc1)Nc1cccc(F)c1`: the T/C is 103 % of control under setting [1], 102 % of control under setting [2] and 88 % of control under setting [3].
As for `COc1ccc(NC(=O)Oc2cc(C)c(Cl)cc2C(C)C)c(OC)c1`, the T/C was 101 % of control under setting [1], 101 % of control under setting [2] and 92 % of control under setting [3].
With `O=C(O)c1cc(Br)cc(Br)c1O`, the T/C reads like this: under setting [6], 123 % of control; (dose: 100.0 mg/kg/injection, schedule: Q04DX002 (ip), vehicle: saline with Tween-80) 91 % of control; under setting [7], 105 % of control; (dose: 200.0 mg/kg/injection, schedule: Q04DX002 (ip), vehicle: saline with Tween-80) 100 % of control; under setting [8], 109 % of control; (dose: 400.0 mg/kg/injection, schedule: Q04DX002 (ip), vehicle: saline with Tween-80) 88 % of control.
Regarding `CC(=O)NC1CCCC(OC(C)=O)C1` (stereo not drawn), the T/C is 88 % of control (dose: 50.0 mg/kg/injection, schedule: Q01DX009 (ip), vehicle: saline with Tween-80) and 91 % of control under setting [9].
On to `O=c1[nH]c(=O)n(CCc2cccs2)cc1F`, for which the T/C reads like this: under setting [9], 98 % of control; under setting [10], 93 % of control; under setting [11], 96 % of control; under setting [12], 96 % of control; under setting [13], 98 % of control; under setting [14], 95 % of control.
As for `C[Si]1(C)CCCSC1`, the T/C was 93 % of control under setting [6], 96 % of control under setting [7] and 97 % of control under setting [8].
Turning to `O=S1(=O)C2CCCC1CCC2`, the T/C was 98 % of control and 109 % of control (dose: 10.0 mg/kg/injection, schedule: Q01DX001 (ip), vehicle: saline); 102 % of control (dose: 40.0 mg/kg/injection, schedule: Q01DX001 (ip), vehicle: saline); 109 % of control (dose: 75.0 mg/kg/injection, schedule: Q01DX001 (ip), vehicle: saline); 100 % of control (dose: 150.0 mg/kg/injection, schedule: Q01DX001 (ip), vehicle: saline); 104 % of control (dose: 300.0 mg/kg/injection, schedule: Q01DX001 (ip), vehicle: saline).
For the compound `COc1ccc(C(=O)c2no[n+]([O-])c2C(=O)c2ccc(OC)cc2)cc1`, the T/C under setting [10] was 90 % of control and the T/C under setting [12] was 94 % of control.
Regarding `COc1ccccc1NC(=O)Nc1ccccc1Cl`, the T/C under setting [9] was 88 % of control; the T/C under setting [10] is 89 % of control; the T/C under setting [11] is 112 % of control; the T/C under setting [12] was 92 % of control; the T/C under setting [13] was 92 % of control; the T/C under setting [14] was 89 % of control.
In the case of `NC(=S)N/N=C/c1c(Cl)n(-c2ccccc2)c2ccccc12`, the T/C is 87 % of control (dose: 50.0 mg/kg/injection, schedule: Q04DX002 (ip), vehicle: Klucel (hydroxypropylcellulose) (HPC)); 87 % of control under setting [4]; 93 % of control under setting [5].
